Experimental data as given in PubChem BioAssay AID2305 (GlaxoSmithKline (GSK), 2010).

The compounds below were run on P. falciparum 3D7 growth, pLDH absorbance (assay: P. falciparum 3D7 growth inhibition, dose response, strain 3D7 (AID 2305)).

SMILES | IC50 [nM]
O=C(Nc1ccc(F)c(C(F)(F)F)c1)NC1CCN(CCCCCNC(=O)[C@@H]2C[C@H]2c2ccc(Cl)c(Cl)c2)CC1 | 660
CCc1ccc(O)c(-c2cc(C(=O)Nc3cccnc3)[nH]n2)c1 | 690
O=C(c1ccco1)N1CCN(c2nc(-c3ccc(Cl)cc3)nc3ccccc23)CC1 | 930
COc1ccc(NC(=O)/C=C/c2cc(F)cc(C(F)(F)F)c2)cc1OCCN(C(C)C)C(C)C | 670
Oc1ccc(Nc2nc(NCC3CCCO3)c3ccccc3n2)cc1 (stereo not drawn) | 810
CN1CCN(c2cccc(-c3nnc(-c4ccc(OCC(=O)NCc5cccc(C(F)(F)F)c5)c([N+](=O)[O-])c4)o3)c2)CC1 | 960
COc1ccc2ncc(F)c(CCN3C[C@H](CNCc4ccc5ccccc5c4)[C@H](O)C3)c2n1 | 500
COc1c(C2CCN(CCCCNC(=O)c3ccc(-c4ccc(C(F)(F)F)cc4)c(C(=O)OC(C)C)c3)CC2)ccc2c1CCCC2 | 860
CNC(=O)c1cc(Nc2nnc(-c3ccc(C)c(S(=O)(=O)NC4CCCCC4)c3)c3ccccc23)ccc1OC | 900
C=Cc1ccc(-c2c(C)[nH]c(C)c(Br)c2=O)cc1 | 560
Cc1cccc2[nH]c(-c3ccc(-c4ccc(NC(=O)Nc5ccsc5)cc4)s3)nc12 | 110
Cc1cnc(C(=O)Nc2cccc(-c3ccc(-c4nc5ccc(C(F)(F)F)cc5[nH]4)s3)c2)cn1 | 700
COc1ccc(C=NNc2cc(C)nc3ccccc23)cc1OC | 860
COc1ccc(-c2cc(C(=O)N[C@@H](CC3CCCCC3)C(=O)NCCN3CCCC3)ccc2O)cc1 | 870
COc1ccc(-c2nc(NC(=O)COc3ccc(C(C)=O)cc3)sc2C)cc1 | 710
Cc1nc(-c2ccc(-c3ccc(C(=O)Nc4ccc(-n5ccnc5)c(N5CCN(C)CC5)c4)cc3)c(C)c2)no1 | 830
Cc1ccc(N2CCc3c(-c4cc5cccnc5nc4C)cc(C)nc32)c(Cl)c1 | 580
CC(=O)Nc1cc(C(=O)Nc2cccc(-c3cccc(-c4nc5ccc(C(F)(F)F)cc5[nH]4)c3)c2)ccc1C | 220
COc1ccc(CNC(=O)c2cnc3c(O)cccc3c2Nc2cccc(NC(=O)c3ccc(Cl)c(Cl)c3)c2)cc1 | 600
Nc1nnc(-c2ccc(Cl)c(Br)c2)c(N)n1 | 1040
O=[N+]([O-])c1ccc2nc(Nc3cccc(C(F)(F)F)c3)c(Nc3cccc(C(F)(F)F)c3)nc2c1 | 480
CC(C)CC(=O)N1CCNC[C@@H]1C(=O)NC1CC1 | 1090
CNC(=O)Cc1ccc(C(=O)Nc2cccc(-c3cccc(-c4nc5ccc(C(F)(F)F)cc5[nH]4)c3)c2)cc1 | 440

SMILES | IC50 [nM]
N#Cc1cccc(C(O)CN(Cc2ccccc2)Cc2ccccc2)c1 (stereo not drawn) | 1270
COc1ccc2nc3cc(Cl)ccc3c(NCCCO)c2c1 | 780
CC1CN(Cc2ccc(-c3ccc(-c4nc5ccc(F)cc5[nH]4)cc3)cc2)CC(C)O1 (stereo not drawn) | 560
COc1cccc(OC2CCN(C(=O)c3cc(C(C)(C)C)nn3Cc3ccccc3)CC2)c1 | 250
COc1cccc(C=NNc2cc(C)nc3ccccc23)c1 | 940
COc1cccc(OC(C)(C)c2nc(N[C@@H](C)c3ccccc3)c3cn[nH]c3n2)c1 | 970
c1ccc2sc(Sc3ncnc4sccc34)nc2c1 | 730
Cc1cccc2[nH]c(-c3cccc(-c4cccc(CN5CCN(c6ccncc6)CC5)c4)c3)nc12 | 200
OC(CNCc1ccccc1)c1cc(OCc2ccccc2)cc(OCc2ccccc2)c1 (stereo not drawn) | 1000
CN1CCCC(CN2CCN(Cc3ccc(-c4ccc(-c5nc6ccccc6[nH]5)cc4)cc3)CC2)C1 (stereo not drawn) | 140
Cc1cccc2[nH]c(-c3cccc(-c4ccc(NC(=O)CC5NC(=O)c6ccccc65)cc4)c3)nc12 (stereo not drawn) | 290
CNC(=O)c1[nH]c(-c2ccccc2)nc1NC(C)=O | 150
CC(C)NCC(O)Cn1c2ccc(Br)cc2c2cc(Br)ccc21 (stereo not drawn) | 450
c1ccc(-c2cccc(-c3ccccn3)n2)nc1 | 900
CCc1ccccc1NC(=O)CN1CCN(c2ncnc3scc(-c4ccc(F)cc4)c23)CC1 | 700
O=C(Nc1ccc(F)c([N+](=O)[O-])c1)Nc1cc(C(F)(F)F)ccc1Cl | 860
NC1=NC2(CCCC2)C(c2ccc(Cl)c(Cl)c2)C(N)=N1 (stereo not drawn) | 990
COc1cccc2cc(C(=O)N[C@@H](CC(C)C)C(=O)N[C@H](/C=N/NC(=O)Cc3cccnc3)CCc3ccccc3)oc12 | 950
c1ccc(COc2ccc(Nc3ncnc4ccc(-c5ccc(CN6CCSCC6)o5)cc34)cc2)cc1 | 830
CC(C)(C)OC(=O)NCc1ccc(Nc2nnc(-c3cccc(C(=O)NCc4cc(C(F)(F)F)cc(C(F)(F)F)c4)c3)o2)cc1 | 860
N#Cc1ccc(CN2CCC(Oc3ccc(NC(=O)c4cccs4)cc3Cl)C2)cc1 (stereo not drawn) | 400
COc1ccc2c(c1C1CCN(CCCCNC(=O)c3ccc(-c4ccc(Cl)cn4)cc3)CC1)CCCC2 | 1020
CCn1ccc2c(N3CCCCS3(=O)=O)cc(C(=O)N[C@@H](Cc3ccccc3)[C@H](O)CNC3CCCCC3)cc21 | 120

SMILES | IC50 [nM]
O=C(Cn1c(CCc2cccc(F)c2F)nc(=O)c2ccccc21)N(CCN1CCCC1)Cc1ccc(-c2ccc(C(F)(F)F)cc2)cc1 | 710
CCOc1ccccc1[C@H]1[C@H](C(=O)C(C)(C)C)N2c3ccc(Br)cc3C=CC2C12C(=O)c1ccccc1C2=O (stereo partly drawn) | 850
O=S(=O)(Nc1cccc(CCN2CCCCC2CCN2CCCC2)c1)c1cccc2ccccc12 (stereo not drawn) | 820
CCN(CC)CCN(Cc1ccc(-c2ccc(C(F)(F)F)cc2)cc1)C(=O)Cn1c(CCc2cccc(F)c2F)nc(=O)c2sccc21 | 900
CCC(C)CNC(=O)CN1CN(c2ccccc2)C2(CCN(C(=O)c3ccc(Br)cc3)CC2)C1=O (stereo not drawn) | 1070
CN1CCN(c2ccnc3ccc(NC(=O)Nc4cccc5ccccc45)cc23)CC1 | 490
C[C@@]12C[C@@H](Nc3nc(NCCc4ccc(O)cc4)nc(N4CCNCC4)n3)C[C@@H](C1)c1cccc(Cl)c1O2 | 1320
Cc1cccc(CNc2nc(C)cc(N[C@@H](Cc3ccccc3)C(=O)NCCc3ccccc3)n2)c1 | 670
O=C(NC=Nc1cc([N+](=O)[O-])c(-c2ccncc2)n1-c1ccccc1)c1cccc(O)c1 | 330
O=C(/C=C/c1ccc(Cl)c(Cl)c1)NC1CCC(CN2CCC(c3cc4ccccc4[nH]3)CC2)CC1 (stereo not drawn) | 990
O=C(NC1CCN(Cc2ccccc2)CC1)c1ccc(-c2nc3cc(Cl)c(Cl)cc3[nH]2)s1 | 310
C=CCNC(=O)CCCN=C(N)N | 720
COc1cc(F)c2nccc([C@@H](O)CN3CCC(NCc4cc5c(cc4F)OCCO5)CC3)c2c1 | 680
CCC1CN2CCc3c([nH]c4ccc(OC)cc34)[C@@H]2C[C@@H]1CC1NCCc2cc(OC)c(OC)cc21 (stereo partly drawn) | 860
O=C(Nc1ccccc1)N(Cc1cccc(-c2cccc(CNCc3ccc4c(c3)OCO4)c2)c1)C1CCN(Cc2ccccc2)CC1 | 280
Cc1ccc(Nc2nnc(SCC(=O)Nc3ccc(CN4CCCC4)cc3)s2)cc1 | 1210
CC(C)n1cc2c(ccc3nc(N)nc(N)c32)n1 | 40
CCc1ccc(NC(=O)c2ccc(CN3CCCN(Cc4cccc(Cl)c4)CC3)cc2)cc1 | 1110
Cc1cccc2[nH]c(-c3ccc(-c4ccc(CN5CCCC(O)C5)cc4)s3)nc12 (stereo not drawn) | 830
CC(C)NCc1cccc(-c2ccc(NC(=O)c3cccc(C#N)c3)cc2)c1 | 320
Nc1nc(N)c2cc(Cc3ccc([N+](=O)[O-])cc3)cnc2n1 | 940
CCCCC(CC)NC(=O)[C@H]1CNCCN1C(=O)CCCc1ccccc1 (stereo partly drawn) | 890
